Results from patent publication US20220306695A1, “COMPSTATIN ANALOGUES AND THEIR MEDICAL USES” (priority 2019, published 2022).
Read-outs that look alike come from different tables or passages of the source. Starred links: 1 amine or outer side, 2 acyl side, 3 side chain; linkers in the order of their positions; H or OH if unused. Positions of bridges follow the written chain, without caps; N, C: chain ends. Non-standard residues stand in square brackets, D forms with d. Residues, ends and D or L forms follow the SMILES beside them. Groups on a side chain read outwards from the residue. *: point of attachment. Trp(1-Me) = Cn1cc(C[C@H](N)C(=O)O)c2ccccc21; C18 diacid = O=C(O)CCCCCCCCCCCCCCCCC(=O)*; γGlu = O=C(O)[C@H](CCC(=O)[*:2])N[*:1]; Sar = CNCC(=O)O

Legend:
[1] = test system: classical complement pathway; test: In vitro haemolysis assay (inhibition of classical complement pathway); assay type: cell-based, human
Procedure: Method The in vitro effect of test compounds was assessed by measuring their inhibitory effect of the classical complement pathway in a haemolysis assay. Briefly, test compounds and reference compounds were dissolved in DMSO and diluted in Tris/Casein Assay Buffer (10 mM Tris, 145 mM NaCl, 0.5 mM MgCl2, 0.15 mM CaCl2, and 0.1% W/V Casein, adjusted to pH 7.4) as 9-point serial dilutions in a 96 well plate. Sensitized sheep red blood cells (RBC) coated with rabbit anti-sheep erythrocyte antiserum (Complement Technology, Inc., TX, USA) were washed in Tris/Casein Assay Buffer. 50 μL from each well of diluted compound was added to a 96-well plate containing 50 μL diluted human serum (Complement Technology, Inc., TX, USA) and incubated for 15 minutes at room temperature. The serum dilution factor was optimized for every serum batch to obtain 70-90% of maximal haemolysis using the protocol. Then 50 μL sensitized sheep red blood cells were added to all wells ([…] per well). After 30 minutes of incubation at 37° C. with gentle agitation, the reaction was stopped by addition of 50 μL Tris STOP Buffer per well (10 mM EDTA, 10 mM Tris, 145 mM NaCl adjusted to pH 7.4). The RBCs were then removed by centrifugation and the resulting supernatant measured for hemolysis by absorbance at 405 nm. The response was normalized relative to a positive and negative control (vehicle) to calculate the IC50 from the concentration response curve using the 4-parameter logistic (4PL) nonlinear model for curve fitting.

[2] = Solubility test at 10 mg/mL (visual inspection and light scattering); assay type: physicochemical; settings: for Solubility, Condition 1 Acetate pH 4: 10 mg/mL compound in 100 mM acetate pH 4; for Solubility, Condition 2 Acetate pH 5: 10 mg/mL compound in 100 mM acetate pH 5; for Solubility, Condition 3 Phosphate pH 6: 10 mg/mL compound in 100 mM phosphate pH 6; for Solubility, Condition 4 Phosphate pH 7: 10 mg/mL compound in 100 mM phosphate pH 7; for Solubility, Condition 5 Phosphate pH 7.5: 10 mg/mL compound in 100 mM phosphate pH 7.5
Procedure: The solubility of compounds was assessed by measuring light scattering over a pH interval from pH 4 to pH 7.5.
Compounds were dissolved in a stock solution of 20 mg/mL in H2O at pH 2.5 or pH 10.
These stock solutions were diluted 1:1 with 200 mM buffered solution to reach a final solution of 10 mg/mL compound in 100 mM buffer. The 5 investigated conditions were (1) acetate pH 4.0, (2) acetate pH 5.0, (3) phosphate pH 6.0, (4) phosphate pH 7 and (5) phosphate pH 7.5.
Visual inspection included manually checking the 96 well plate for wells that are clear or non-clear. In addition to this a picture of the 96 well plate is taken.
Absorbance was measured at four wavelengths: 280 nm, 325 nm, 340 nm and 360 nm in an UV transparent 96 well microplate in a SpectraMax 190 microplate reader (Molecular Devices).
The criteria for this was a combination of visual inspection and light scattering not exceeding 0.1 AU, where values below 0.1 AU are good in visually clear samples. […]

[3] = Table 4, valine 3 versus isoleucine 3 pairs, read-out: CP hemolysis IC50
[4] = Table 3, human serum, sensitized sheep red blood cells, read-out: IC50[nM], in vitro analysis of inhibition of hemolysis

CC[C@H](C)[C@H](NC(C)=O)C(=O)N[C@H]1CSSC[C@@H](C(=O)N[C@H](C(N)=O)[C@@H](C)O)NC(=O)[C@H](CCCNC(=N)N)NC(=O)[C@H](Cc2c[nH]cn2)NC(=O)[C@H](CCC(=O)O)NC(=O)CNC(=O)[C@H](Cc2c[nH]c3ccccc23)NC(=O)[C@H](CC(=O)O)NC(=O)[C@H](CCC(N)=O)NC(=O)[C@H](Cc2c[nH]c3ccccc23)NC(=O)[C@H](C(C)C)NC1=O [A, reference compound] (Ac-ICVWQDWGEHRCT-NH2; disulfide 2-12)
IC50 [1, 3]: 0.35 µM | IC50 ([1]; Table 5, different residues at position 3 of Ac-IC(1)XWQDWGEHRC(1)T-NH2, read-out: IC50, CP hemolysis): 0.35 µM

CC[C@H](C)[C@H](NC(C)=O)C(=O)N[C@H]1CSSC[C@@H](C(=O)N[C@H](C(N)=O)[C@@H](C)O)NC(=O)[C@H](CCCNC(=N)N)NC(=O)[C@H](Cc2c[nH]cn2)NC(=O)[C@H](Cc2c[nH]cn2)NC(=O)CNC(=O)[C@H](Cc2c[nH]c3ccccc23)NC(=O)[C@H](CC(=O)O)NC(=O)[C@H](CCC(N)=O)NC(=O)[C@H](C(C)C)NC(=O)[C@H](C(C)C)NC1=O [Ac-compstatin, reference compound]
IC50 ([1]; Table 3, cells that print μM, read-out: IC50, in vitro analysis of inhibition of hemolysis): > 5 µM

CC[C@H](C)[C@H](NC(C)=O)C(=O)N[C@H]1CSSC[C@@H](C(=O)N[C@H](C(N)=O)[C@@H](C)O)NC(=O)[C@H](CCCNC(=N)N)NC(=O)[C@H](Cc2c[nH]cn2)NC(=O)[C@H](CO)NC(=O)CNC(=O)[C@H](Cc2c[nH]c3ccccc23)NC(=O)[C@H](CC(=O)O)NC(=O)[C@H](CCC(N)=O)NC(=O)[C@H](Cc2c[nH]c3ccccc23)NC(=O)[C@H](C(C)C)NC1=O [B, reference compound] (Ac-ICVWQDWGSHRCT-NH2; disulfide 2-12)
IC50 [1, 3]: 0.36 µM

CC[C@H](C)[C@H](NC(=O)[C@H](C)NC(=O)[C@H](CO)NC(=O)[C@H](CO)NC(=O)[C@H](CCC(=O)O)NC(C)=O)C(=O)N[C@H]1CSSC[C@@H](C(=O)N[C@H](C(N)=O)[C@@H](C)O)NC(=O)[C@H](CCCNC(=N)N)NC(=O)[C@H](Cc2c[nH]cn2)NC(=O)[C@H](CCC(=O)O)NC(=O)CNC(=O)[C@H](Cc2c[nH]c3ccccc23)NC(=O)[C@H](CC(=O)O)NC(=O)[C@H](CCC(N)=O)NC(=O)[C@H](Cc2c[nH]c3ccccc23)NC(=O)[C@H](C(C)C)NC1=O [C, reference compound] (Ac-ESSAICVWQDWGEHRCT-NH2; disulfide 6-16)
IC50 [1, 3]: 0.3 µM

CC[C@H](C)[C@H](NC(C)=O)C(=O)N[C@H]1CSSC[C@@H](C(=O)N[C@H](C(N)=O)[C@@H](C)O)NC(=O)[C@H](CCCNC(=N)N)NC(=O)[C@H](Cc2c[nH]cn2)NC(=O)[C@H](C)NC(=O)CNC(=O)[C@H](Cc2c[nH]c3ccccc23)NC(=O)[C@H](CC(=O)O)NC(=O)[C@H](CCC(N)=O)NC(=O)[C@H](Cc2c[nH]c3ccccc23)NC(=O)[C@H](C(C)C)NC1=O [Compound 4W9A, reference compound]
IC50 ([1]; Table 2, human serum, sensitized sheep red blood cells, read-out: CP hemolysis IC50): 0.25 µM | IC50 [1, 4]: < 0.5 µM

CC[C@H](C)[C@H](NC(C)=O)C(=O)N[C@H]1CSSC[C@@H](C(=O)N[C@H](C(N)=O)[C@@H](C)O)NC(=O)[C@H](CCCNC(=N)N)NC(=O)[C@H](Cc2c[nH]cn2)NC(=O)[C@H](CCCCN)NC(=O)CNC(=O)[C@H](Cc2c[nH]c3ccccc23)NC(=O)[C@H](CC(=O)O)NC(=O)[C@H](CCC(N)=O)NC(=O)[C@H](Cc2c[nH]c3ccccc23)NC(=O)[C@H]([C@@H](C)CC)NC1=O [Compound 5] (Ac-ICIWQDWGKHRCT-NH2; disulfide 2-12)
IC50 [1, 4]: < 0.25 µM

CC[C@H](C)[C@H](NC(C)=O)C(=O)N[C@H]1CSSC[C@@H](C(=O)N[C@H](C(N)=O)[C@@H](C)O)NC(=O)[C@H](CCCNC(=N)N)NC(=O)[C@H](Cc2c[nH]cn2)NC(=O)[C@H](CO)NC(=O)CNC(=O)[C@H](Cc2c[nH]c3ccccc23)NC(=O)[C@H](CC(=O)O)NC(=O)[C@H](CCC(N)=O)NC(=O)[C@H](Cc2c[nH]c3ccccc23)NC(=O)[C@H]([C@@H](C)CC)NC1=O [Compound 6] (Ac-ICIWQDWGSHRCT-NH2; disulfide 2-12)
IC50 [1, 4]: < 0.25 µM | IC50 [1, 3]: 0.14 µM

CC[C@H](C)[C@H](NC(C)=O)C(=O)N[C@H]1CSSC[C@@H](C(=O)N[C@H](C(N)=O)[C@@H](C)O)NC(=O)[C@H](CCCNC(=N)N)NC(=O)[C@H](Cc2c[nH]cn2)NC(=O)[C@H](CCC(=O)O)NC(=O)CNC(=O)[C@H](Cc2c[nH]c3ccccc23)NC(=O)[C@H](CCCCN)NC(=O)[C@H](CCC(N)=O)NC(=O)[C@H](Cc2c[nH]c3ccccc23)NC(=O)[C@H]([C@@H](C)CC)NC1=O [Compound 7] (Ac-ICIWQKWGEHRCT-NH2; disulfide 2-12)
IC50 [1, 4]: < 1 µM

CC[C@H](C)[C@@H]1NC(=O)[C@@H](NC(=O)[C@H](Cc2ccc(O)cc2)NC(=O)[C@H](C)NC(=O)[C@H](CO)NC(C)=O)CSSC[C@@H](C(=O)N(C)CC(=O)N[C@@H](CCC(=O)O)C(=O)N[C@@H](CCCCNC(=O)CC[C@H](NC(=O)CNC(=O)[C@H](CCCCN)NC(=O)CC[C@H](NC(=O)CCCCCCCCCCCCCCCCC(=O)O)C(=O)O)C(=O)O)C(N)=O)NC(=O)[C@H](CCCNC(=N)N)NC(=O)[C@H](Cc2c[nH]cn2)NC(=O)[C@H](CCC(=O)O)NC(=O)CNC(=O)[C@H](Cc2c[nH]c3ccccc23)NC(=O)[C@H](CC(=O)O)NC(=O)[C@H](CCC(N)=O)NC(=O)[C@H](Cc2cn(C)c3ccccc23)NC1=O [Compound 105] (Ac-SAYCI[Trp(1-Me)]QDWGEHRC[Sar]EK([γGlu-Gly-Lys-γGlu-C18 diacid])-NH2; disulfide 4-14)
Solubility, Condition 1 Acetate pH 4 [2]: − (denotes lack of solubility at the given condition, as UV absorbance at 340 nm exceeds 0.1 AU and/or it is visibly turbid or contains particles.) | Solubility, Condition 2 Acetate pH 5 [2]: − (denotes lack of solubility at the given condition, as UV absorbance at 340 nm exceeds 0.1 AU and/or it is visibly turbid or contains particles.) | Solubility, Condition 3 Phosphate pH 6 [2]: + (denotes solubility at the given condition, as determined by UV absorbance being less than 0.1 AU at 340 nm and the sample being clear when manually inspected.) | Solubility, Condition 4 Phosphate pH 7 [2]: + (denotes solubility at the given condition, as determined by UV absorbance being less than 0.1 AU at 340 nm and the sample being clear when manually inspected.) | Solubility, Condition 5 Phosphate pH 7.5 [2]: + (denotes solubility at the given condition, as determined by UV absorbance being less than 0.1 AU at 340 nm and the sample being clear when manually inspected.)

CC[C@H](C)[C@@H]1NC(=O)[C@@H](NC(=O)[C@H](Cc2ccc(O)cc2)NC(=O)[C@H](CCC(=O)O)NC(=O)[C@H](CO)NC(C)=O)CSSC[C@@H](C(=O)N(C)CC(=O)N[C@@H](CCC(=O)O)C(=O)NCC(=O)N[C@@H](CCC(=O)O)C(=O)N[C@@H](CCCCNC(=O)CC[C@H](NC(=O)[C@H](CCCCN)NC(=O)CC[C@H](NC(=O)CCCCCCCCCCCCCCCCC(=O)O)C(=O)O)C(=O)O)C(N)=O)NC(=O)[C@H](CCCNC(=N)N)NC(=O)[C@H](Cc2c[nH]cn2)NC(=O)[C@H](CCC(=O)O)NC(=O)CNC(=O)[C@H](Cc2c[nH]c3ccccc23)NC(=O)[C@H](CC(=O)O)NC(=O)[C@H](CCC(N)=O)NC(=O)[C@H](Cc2cn(C)c3ccccc23)NC1=O [Compound 116] (Ac-SEYCI[Trp(1-Me)]QDWGEHRC[Sar]EGEK([γGlu-Lys-γGlu-C18 diacid])-NH2; disulfide 4-14)
Solubility, Condition 1 Acetate pH 4 [2]: − (denotes lack of solubility at the given condition, as UV absorbance at 340 nm exceeds 0.1 AU and/or it is visibly turbid or contains particles.) | Solubility, Condition 2 Acetate pH 5 [2]: − (denotes lack of solubility at the given condition, as UV absorbance at 340 nm exceeds 0.1 AU and/or it is visibly turbid or contains particles.) | Solubility, Condition 3 Phosphate pH 6 [2]: + (denotes solubility at the given condition, as determined by UV absorbance being less than 0.1 AU at 340 nm and the sample being clear when manually inspected.) | Solubility, Condition 4 Phosphate pH 7 [2]: + (denotes solubility at the given condition, as determined by UV absorbance being less than 0.1 AU at 340 nm and the sample being clear when manually inspected.) | Solubility, Condition 5 Phosphate pH 7.5 [2]: + (denotes solubility at the given condition, as determined by UV absorbance being less than 0.1 AU at 340 nm and the sample being clear when manually inspected.)
